In brackets after ≈: the same amount, converted by molar mass. Where two headings read alike, the source gives them in different places. One block for each compound: values may come before it. Where a SMILES comes first, the peptide text is derived from it. Where no end group is shown, it is not given here. [ ]: non-standard residue; d: D form.
Legend:
[1] = test system: C. acnes strains (C2, C5, PJI2, PJI8); assay: microbe, parasite or virus in culture
Experimental: (§1) C. acnes strains were isolated on Columbia agar containing 5% sheep blood (BioRad, Hercules, California, USA) and cultivated in Brain Heart Infusion (BHI) broth (BioRad, Hercules, California, USA) for 5 days, under anaerobic conditions using the GenBox system (Biomérieux, Marcy l’Etoile, France), at 37°C. For all assays, one colony of isolated C. acnes strains was inoculated in a 1.5 mL vial containing 1.5 mL of BHI. After 5–6 days of incubation (stationary phase reached after 4 days) at 37°C, the absorbance (at 600 nm) of the bacterial culture was adjusted to 1. The bacterial suspension was then diluted in BHI broth at 1/100 (OD: 0.01) and 1 mL of this suspension was inoculated in each well of 24- or 48-well plates.
(§2) Peptides were added to a 48-well plate at the desired concentrations in BHI medium and diluted bacteria were inoculated as described in the “Bacterial Strain Culture” section. Plates were incubated at 37°C, under anaerobic conditions using the GenBox system, for 5–6 days. The effect of the peptide on planktonic growth was determined by measuring the MIC which was defined as the concentration in the well containing the minimal amount of compound that leads to the absence of visible bacterial growth, according to Wiegand et al. ([38]). […] Finally, 48-well plates containing cultures with or without peptides were washed three times with water to remove unattached bacteria. Adhered bacteria were stained with 1 mL of 0.2% crystal violet for 20 min, then washed with water, and crystal violet was extracted with 95% ethanol (vol/vol). The quantity of biofilm (biomass) was analyzed by measuring the absorbance of the crystal violet suspension at 595 nm using the SpectroStar nano spectrophotometer (BMG Labtech, Ortenberg, Germany). The Minimal Biofilm Inhibition Concentration (MBIC) was defined as the concentration in the well containing the minimal quantity of peptide where the crystal violet absorbance, corrected by the blank, was null. Experiments were performed three independent times in technical duplicate for each strain.

[2] = test system: C. acnes strains (C2, C5, PJI2, PJI8)
Experimental: as §1, §2

Compound: CC[C@@H](C)[C@@H](NC(=O)[C@@H](CCCNC(=N)N)NC(=O)[C@@H](CCCNC(=N)N)NC(=O)[C@@H](Cc1c[nH]c2ccccc12)NC(=O)[C@@H](CCC(N)=O)NC(=O)[C@H](N)C(C)C)C(=O)N[C@H](CC(C)C)C(=O)N[C@@H](C(=O)N[C@H](CCCNC(=N)N)C(=O)N[C@@H](C(=O)N[C@@H](C(=O)N[C@H](CCCNC(=N)N)C(N)=O)[C@H](C)CC)C(C)C)C(C)C [AB009-D] (H-[dV][dQ][dW][dR][dR][dI][dL][dV][dR][dV][dI][dR]-NH2)
- MICs ([1]; strains (C2, C5, PJI2, PJI8)): 16 to 32 µg/mL

Compound: CC[C@@H](C)[C@@H](NC(=O)[C@@H](C)NC(=O)[C@@H](CCCNC(=N)N)NC(=O)[C@@H](Cc1c[nH]c2ccccc12)NC(=O)[C@@H](CCC(N)=O)NC(=O)[C@H](N)C(C)C)C(=O)N[C@H](CCCNC(=N)N)C(=O)N[C@@H](C(=O)N[C@H](CCCNC(=N)N)C(=O)N[C@@H](C(=O)N[C@@H](C(=O)N[C@H](CCCNC(=N)N)C(N)=O)[C@H](C)CC)C(C)C)C(C)C [DJK5, reference compound] (H-[dV][dQ][dW][dR][dA][dI][dR][dV][dR][dV][dI][dR]-NH2)
- MICs ([1]; strains (C2, C5, PJI2, PJI8)): 16 to 32 µg/mL

Compound: CC[C@@H](C)[C@@H](NC(=O)[C@@H](CCCNC(=N)N)NC(=O)[C@@H](CCCNC(=N)N)NC(=O)[C@@H](Cc1c[nH]c2ccccc12)NC(=O)[C@@H](CCC(N)=O)NC(=O)[C@H](N)C(C)C)C(=O)N[C@@H](C(=O)N[C@@H](C(=O)N[C@H](CCCNC(=N)N)C(=O)N[C@@H](C(=O)N[C@@H](C(=O)N[C@H](CCCNC(=N)N)C(N)=O)[C@H](C)CC)C(C)C)C(C)C)[C@H](C)CC [AB008-D] (H-[dV][dQ][dW][dR][dR][dI][dI][dV][dR][dV][dI][dR]-NH2)
- MBC ([1]; strains (C2, C5, PJI2, PJI8)): >64 µg/mL
- MBIC ([2]; strains (C2, C5, PJI2, PJI8)): 32 µg/mL

Compound: VRLIVAVRIWRR-NH2 [Peptide 1018, reference compound]
- MIC ([1]; strain C2, BHI, anaerobic, 37°C, 5–6 days, n = 3 (n = 2 for 1018, AB008-D)): >64 µg/mL
- MBC ([1]; strain C2, no colonies on blood agar after 5–6 days anaerobic, n = 3 (n = 2 for 1018, AB008-D)): >64 µg/mL
- MIC ([1]; strain C5, BHI, anaerobic, 37°C, 5–6 days, n = 3 (n = 2 for 1018, AB008-D)): >64 µg/mL
- MBC ([1]; strain C5, no colonies on blood agar after 5–6 days anaerobic, n = 3 (n = 2 for 1018, AB008-D)): >64 µg/mL
- MIC ([1]; strain PJI2, BHI, anaerobic, 37°C, 5–6 days, n = 3 (n = 2 for 1018, AB008-D)): >64 µg/mL
- MBC ([1]; strain PJI2, no colonies on blood agar after 5–6 days anaerobic, n = 3 (n = 2 for 1018, AB008-D)): >64 µg/mL
- MIC ([1]; strain PJI8, BHI, anaerobic, 37°C, 5–6 days, n = 3 (n = 2 for 1018, AB008-D)): >64 µg/mL
- MBC ([1]; strain PJI8, no colonies on blood agar after 5–6 days anaerobic, n = 3 (n = 2 for 1018, AB008-D)): >64 µg/mL
- MBIC ([2]; strain C2, crystal violet absorbance 595 nm null, n = 3 (n = 2 for 1018, AB008-D)): 32 µg/mL
- MBIC ([2]; strain C5, crystal violet absorbance 595 nm null, n = 3 (n = 2 for 1018, AB008-D)): 32 µg/mL
- MBIC ([2]; strain PJI2, crystal violet absorbance 595 nm null, n = 3 (n = 2 for 1018, AB008-D)): 32 µg/mL
- MBIC ([2]; strain PJI8, crystal violet absorbance 595 nm null, n = 3 (n = 2 for 1018, AB008-D)): 32 µg/mL

The next lines start with results.

- MIC ([1]; Cutibacterium acnes): 0.008 µg/mL (≈ 9.72 nM)
- MIC ([1]; strain C5, n=3): 0.008 µg/mL (≈ 9.72 nM)
- MIC ([1]; strain PJI2, n=3): 0.008 µg/mL (≈ 9.72 nM)
- MIC ([1]; strain PJI8, n=3): 0.008 µg/mL (≈ 9.72 nM)
Compound: CO[C@H]1/C=C/O[C@@]2(C)Oc3c(C)c(O)c4c(O)c(c(/C=N/N5CCN(C)CC5)c(O)c4c3C2=O)NC(=O)/C(C)=C\C=C\[C@H](C)[C@H](O)[C@@H](C)[C@@H](O)[C@@H](C)[C@H](OC(C)=O)[C@@H]1C [Rifampicin, rifampicin, reference compound]
- MBC ([1]; Cutibacterium acnes, strain C2, n=3): > 0.064 µg/mL
- MBC ([1]; Cutibacterium acnes, strain C5, n=3): > 0.064 µg/mL
- MBC ([1]; Cutibacterium acnes, strain PJI2, n=3): > 0.064 µg/mL
- MBC ([1]; Cutibacterium acnes, strain PJI8, n=3): 0.008 to 0.016 µg/mL (≈ 9.72 to 19.4 nM)
- MBIC ([2]; strain C2, n=3): 0.002 to 0.004 µg/mL
- MBIC ([2]; strain C5, n=3): 0.008 µg/mL
- MBIC ([2]; strain PJI2, n=3): 0.004 to 0.008 µg/mL
- MBIC ([2]; strain PJI8, n=3): 0.008 µg/mL

- MICs ([1]; strains (C2, C5, PJI2, PJI8)): 16 to 32 µg/mL
Compound: CC[C@@H](C)[C@@H](NC(=O)[C@@H](CCCNC(=N)N)NC(=O)[C@H](N)CCCCN)C(=O)N[C@H](CCCNC(=N)N)C(=O)N[C@H](Cc1c[nH]c2ccccc12)C(=O)N[C@@H](C(=O)N[C@@H](C(=O)N[C@H](CC(C)C)C(=O)N[C@H](CCCNC(=N)N)C(=O)N[C@@H](C(=O)N[C@@H](C(=O)N[C@H](CCCNC(=N)N)C(N)=O)[C@H](C)CC)C(C)C)[C@H](C)CC)C(C)C [AB101-D] (H-[dK][dR][dI][dR][dW][dV][dI][dL][dR][dV][dI][dR]-NH2)

Reference: paper PMC12053997, “D-enantiomeric antibiofilm peptides effective against anaerobic Cutibacterium acnes biofilm” (Microbiology Spectrum, 2025)
